# Counter-ions that a name gives are not always drawn.
# Tests used:
# Matricaria chamomita = assay: Field trial, herbicidal action (Table 4); assay type: in vivo; conditions: post-emergence application in the 4-leaf stage, scoring 28 days after post-emergence application
# Experimental: (§1) Transgenic oil-seed rape plants with resistance to one or more herbicides (A) were grown together with typical weed plants in the open in 2×5 m plots under natural field conditions; alternatively, the weed population established naturally while the oil-seed rape plants grew. Treatment with the compositions according to the invention and, for control purposes, with separate application of the active ingredients of the components alone, was carried out under standard conditions with a plot sprayer at an application rate of 200-300 liters of water per hectare in parallel trials in accordance with the scheme of Table 1, i.e. pre-sowing/pre-emergence, post-sowing/-pre-emergence or post-emergence at the early, medium or late stage.
# (§2) At 2, 4, 6 and 8 week intervals after application, the herbicidal activity of the active ingredients or active ingredient mixtures were scored visually by comparing the treated plots with untreated control plots. Damage and development of all aerial plant organs was recorded. The scoring was done using a percentage scale (100% activity=all plants dead; 50% activity=50% of the plants and green plant organs dead; 0% activity=no discernible effect=like control plot). The score values of in each case 4 plots were averaged.
# Galium aparine = assay: Oil-seed rape field trial, herbicidal action (Table 3); assay type: in vivo; conditions: application in the 4-5 leaf stage, scoring 36 days after application
# Experimental: as §1, §2
# Datura stramonium = assay: Oil-seed rape field trial, herbicidal action (Table 2); assay type: in vivo; conditions: application in the 5-leaf stage, scoring 3 weeks after application
# Experimental: as §1
# […] Damage and development of all aerial plant organs was recorded. The scoring was done using a percentage scale (100% activity=all plants dead; 50% activity=50% of the plants and green plant organs dead; 0% activity=no discernible effect=like control plot). The score values of in each case 4 plots were averaged.
# Chenopodium album = assay: Field trial, herbicidal action (Table 5); assay type: in vivo; conditions: application in the 4-leaf stage, scoring 15 days after application
# Experimental: as §1, §2
# Cirsium arvense = assay: Field trial, herbicidal action (Table 5); assay type: in vivo; conditions: application in the 4-leaf stage, scoring 15 days after application
# Experimental: as §1, §2
# Oil-seed rape LL = assay: Field trial, crop plant tolerance; assay type: in vivo, Liberty-Link oil-seed rape; conditions: crop damage
# Experimental: Transgenic oil-seed rape plants with resistance to one or more herbicides (A) were grown together with typical weed plants in the open in 2×5 m plots under natural field conditions; alternatively, the weed population established naturally while the oil-seed rape plants grew.
# Damage and development of all aerial plant organs was recorded. […] The score values of in each case 4 plots were averaged.
smiles,measurement,setting,value
"CP(=O)(O)CCC(N)C(=O)O (stereo not shown) [(A1.2), glufosinate monoammonium salt]",Herbicidal action % against Matricaria chamomita,Matricaria chamomita; 125 g of A.S./ha,10%
same,Herbicidal action % against Matricaria chamomita,Matricaria chamomita; 250 g of A.S./ha,35%
same,Herbicidal action % against Matricaria chamomita,Matricaria chamomita; 500 g of A.S./ha,65%
same,Herbicidal action (%) against Galium aparine,Galium aparine; 125 g of A.S./ha,15%
same,Herbicidal action (%) against Galium aparine,Galium aparine; 250 g of A.S./ha,41%
same,Herbicidal action (%) against Galium aparine,Galium aparine; 500 g of A.S./ha,63%
same,Herbicidal action (%) against Datura stramonium,Datura stramonium; 600 g of A.S./ha,90%
same,Herbicidal action (%) against Chenopodium album,Chenopodium album; 230 g of A.S./ha,90%
same,Herbicidal action (%) against Cirsium arvense,Cirsium arvense; 230 g of A.S./ha,85%
same,Herbicidal action (%) against Cirsium arvense,Cirsium arvense; 350 g of A.S./ha,97%
same,Oil-seed rape LL,"Oil-seed rape LL; 125 g of A.S./ha, 4-5 leaf stage, scoring 36 days after application",0%
same,Oil-seed rape LL,"Oil-seed rape LL; 230 g of A.S./ha, 4-leaf stage, scoring 15 days after application",0%
same,Oil-seed rape LL,"Oil-seed rape LL; 250 g of A.S./ha, 4-5 leaf stage, scoring 36 days after application",0%
same,Oil-seed rape LL,"Oil-seed rape LL; 350 g of A.S./ha, 4-leaf stage, scoring 15 days after application",0%
same,Oil-seed rape LL,"Oil-seed rape LL; 500 g of A.S./ha, 4-5 leaf stage, scoring 36 days after application",3%
"Cc1cccc(C)c1N(Cn1cccn1)C(=O)CCl [(B1.1), 2-chloro-N-(2,6-dimethylphenyl)-N-(1H-pyrazol-1-ylmethyl)acetanilide]",Herbicidal action (%) against Datura stramonium,Datura stramonium; 600 g of A.S./ha,40%
same,Herbicidal action (%) against Datura stramonium,Datura stramonium; 1200 g of A.S./ha,93%
"Cc1cnc2c(C(=O)O)c(Cl)ccc2c1 [(B2.1), 7-chloro-3-methylquinoline-8-carboxylic acid]",Herbicidal action % against Matricaria chamomita,Matricaria chamomita; 300 g of A.S./ha,50%
"O=C(O)c1nc(Cl)ccc1Cl [(B2.2), 3,6-dichloropyridine-2-carboxylic acid]",Herbicidal action (%) against Chenopodium album,Chenopodium album; 90 g of A.S./ha,50%
same,Herbicidal action (%) against Cirsium arvense,Cirsium arvense; 90 g of A.S./ha,85%
same,Oil-seed rape LL,"Oil-seed rape LL; 90 g of A.S./ha, 4-leaf stage, scoring 15 days after application",0%
"CCCCCCCCSC(=O)Oc1cc(Cl)nnc1-c1ccccc1 [(B2.3), O-(6-chloro-3-phenylpyridazin-4-yl) S-octyl thiocarbonate]",Herbicidal action % against Matricaria chamomita,Matricaria chamomita; 600 g of A.S./ha,60%
"CCOc1nc(NC)nc(NC(=O)NS(=O)(=O)c2ccccc2C(=O)OC)n1 [(B2.4), methyl 2-{N-[N-(4-ethyox-6-methylamino-1,3,5-triazin-2-yl)aminocarbonyl]aminosulfonyl}benzoate]",Herbicidal action (%) against Chenopodium album,Chenopodium album; 15 g of A.S./ha,30%
same,Herbicidal action (%) against Cirsium arvense,Cirsium arvense; 15 g of A.S./ha,0%
same,Oil-seed rape LL,"Oil-seed rape LL; 15 g of A.S./ha, 4-leaf stage, scoring 15 days after application",0%

# — patent US6677276B1, “Herbicides for tolerant or resistant oil seed rape cultures” (Aventis CropScience GmbH, priority 1998, dated 2004)
